Reference: ChEMBL document CHEMBL6120962, “New Mitochondria-Targeted Fisetin Derivative Compromises Mitophagy and Limits Survival of Drug-Induced Senescent Breast Cancer Cells” (J Med Chem, 2024)
Calls of active or inactive are those of the source. The rule behind the calls is not given here.

Tests used:
CAMA-1 [1] = assay: Anticancer activity against ER-positive human CAMA-1 cells assessed as effect on metabolic activity upto 10 uM incubated for 24 hrs by MTT assay; type: functional, cell-based
Mitochondrial membrane [2] = assay: Induction of mitochondrial membrane potential depolarization in human CAMA-1 cells at 1 uM incubated for 24 hrs by 7-AAD staining based flow cytometric analysis; type: cell membranes
Mitochondrial membrane [3] = assay: Induction of mitochondrial membrane potential depolarization in tamoxifen-induced senescent human HCC1428 cells assessed as increase in depolarized dead cell level at 1 to 5 uM incubated for 24 hrs by 7-AAD staining based flow cytometric analysis; type: cell membranes; conditions: dose 1-5 µM
Mitochondrial membrane [4] = assay: Induction of mitochondrial membrane potential depolarization in tamoxifen-induced senescent human MCF-10F cells assessed as increase in depolarized dead cell level at 1 to 5 uM incubated for 24 hrs by 7-AAD staining based flow cytometric analysis; type: cell membranes; conditions: dose 1-5 µM
MCF-10F [5] = assay: Induction of mitochondrial dysfunction in tamoxifen-induced senescent human MCF-10F cells assessed as decrease in ATP production at 5 uM incubated for 6 hrs by real-time analysis; type: functional, cell-based
MCF-10F [6] = assay: Induction of mitochondrial dysfunction in tamoxifen-induced senescent human MCF-10F cells assessed as decrease in spare respiratory capacity at 5 uM incubated for 6 hrs by real-time analysis; type: functional, cell-based
MCF-10F [7] = assay: Induction of mitochondrial dysfunction in tamoxifen-induced senescent human MCF-10F cells assessed as decrease in coupling efficiency at 5 uM incubated for 6 hrs by real-time analysis; type: functional, cell-based
HCC1428 [8] = assay: Induction of mitochondrial dysfunction in human HCC1428 cells assessed as decrease in maximal respiration at 5 uM incubated for 6 hrs by real time analysis; type: functional, cell-based
MCF-10F [9] = assay: Induction of mitochondrial dysfunction in human MCF-10F cells assessed as decrease in ATP production at 5 uM incubated for 6 hrs by real time analysis; type: functional, cell-based
MCF-10F [10] = assay: Induction of mitochondrial dysfunction in human MCF-10F cells assessed as increase in proton leak at 5 uM incubated for 6 hrs by real time analysis; type: functional, cell-based
HCC1428 [11] = assay: Induction of autophagosome formation in tamoxifen-induced senescent human HCC1428 cells assessed as increase in ubiquitin level at 1 to 5 uM by immunostaining based imaging cytometric analysis; type: functional, cell-based; conditions: dose 1-5 µM
HCC1428 [12] = assay: Induction of oxidative stress in tamoxifen-induced senescent human HCC1428 cells assessed as increase in mitochondrial superoxide production at 1 to 5 uM incubated for 24 hrs by MitoSOX red superoxide indicator based fluorescence analysis; type: functional, cell-based; conditions: dose 1-5 µM
ZR-75-30 [13] = assay: Induction of oxidative stress in tamoxifen-induced senescent human ZR-75-30 cells assessed as increase in mitochondrial SOD2 level at 1 to 5 uM incubated for 24 hrs by MitoSOX red superoxide indicator based fluorescence analysis; type: functional, cell-based; conditions: dose 1-5 µM
HCC1500 [14] = assay: Induction of apoptosis in human HCC1500 cells assessed as phosphatidylserine externalization at 1 to 5 uM incubated for 24 hrs by Annexin V-FITC staining based flow cytometric analysis; type: functional, cell-based; conditions: dose 1-5 µM
ZR-75-30 [15] = assay: Induction of apoptosis in human ZR-75-30 cells assessed as phosphatidylserine externalization at 1 to 5 uM incubated for 24 hrs by Annexin V-FITC staining based flow cytometric analysis; type: functional, cell-based; conditions: dose 1-5 µM
HCC1500 [16] = assay: Induction of apoptosis in tamoxifen-induced senescent human HCC1500 cells assessed as phosphatidylserine externalization at 1 to 5 uM incubated for 24 hrs by Annexin V-FITC staining based flow cytometric analysis; type: functional, cell-based; conditions: dose 1-5 µM
HCC1428 [17] = assay: Induction of apoptosis in tamoxifen-induced senescent human HCC1428 cells assessed as phosphatidylserine externalization at 1 to 5 uM incubated for 24 hrs by Annexin V-FITC staining based flow cytometric analysis; type: functional, cell-based; conditions: dose 1-5 µM
MCF-10F [18] = assay: Induction of apoptosis in human MCF-10F cells assessed as assessed as phosphatidylserine externalization at 1 to 5 uM incubated for 24 hrs by Annexin V-FITC staining based flow cytometric analysis; type: functional, cell-based; conditions: dose 1-5 µM
[19] = target: Receptor-interacting serine/threonine-protein kinase 3 (Homo sapiens) (UniProt Q9Y572); assay: Induction of RIP3 phosphorylation in human HCC1428 cells at 1 to 5 uM incubated for 24 hrs by Western blot analysis; type: cell-based; conditions: dose 1-5 µM
Chain of Receptor-interacting serine/threonine-protein kinase 3 (Homo sapiens) (Q9Y572 whole entry, looked up): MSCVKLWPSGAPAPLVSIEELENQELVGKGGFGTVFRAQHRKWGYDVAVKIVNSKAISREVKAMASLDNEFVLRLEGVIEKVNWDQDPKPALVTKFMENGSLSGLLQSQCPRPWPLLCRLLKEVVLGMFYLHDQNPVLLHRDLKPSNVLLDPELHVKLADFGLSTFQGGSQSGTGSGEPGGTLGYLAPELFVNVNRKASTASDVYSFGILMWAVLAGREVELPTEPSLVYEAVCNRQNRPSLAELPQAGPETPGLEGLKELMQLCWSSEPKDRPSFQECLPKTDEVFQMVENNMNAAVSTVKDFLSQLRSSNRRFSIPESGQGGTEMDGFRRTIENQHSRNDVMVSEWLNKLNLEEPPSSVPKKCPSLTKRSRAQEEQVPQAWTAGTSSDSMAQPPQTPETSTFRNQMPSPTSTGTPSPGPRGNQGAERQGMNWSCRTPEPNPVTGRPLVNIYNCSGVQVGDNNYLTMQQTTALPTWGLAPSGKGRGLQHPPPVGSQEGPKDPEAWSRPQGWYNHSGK

HCC1428 [20] = assay: Induction of apoptosis in tamoxifen-induced senescent human HCC1428 cells assessed as increase in caspase 3 level incubated for 24 hrs by immunostaining based imaging cytometric analysis; type: functional, cell-based
ZR-75-30 [21] = assay: Induction of apoptosis in tamoxifen-induced senescent human ZR-75-30 cells assessed as increase in caspase 3 level incubated for 24 hrs by immunostaining based imaging cytometric analysis; type: functional, cell-based
HCC1428 [22] = assay: Induction of apoptosis in tamoxifen-induced senescent human HCC1428 cells assessed as decrease in Bcl2 level at 5 uM incubated for 24 hrs by Western blot analysis; type: functional, cell-based
HCC1500 [23] = assay: Induction of apoptosis in human HCC1500 cells assessed as decrease in Bcl2 level at 1 to 5 uM incubated for 24 hrs by Western blot analysis; type: functional, cell-based; conditions: dose 1-5 µM
MCF-10F [24] = assay: Induction of apoptosis in tamoxifen-induced senescent human MCF-10F cells assessed as decrease in Bcl2 level at 1 to 5 uM incubated for 24 hrs by Western blot analysis; type: functional, cell-based; conditions: dose 1-5 µM
ZR-75-30 [25] = assay: Induction of AMPK phosphorylation in tamoxifen-induced senescent human ZR-75-30 cells incubated for 24 hrs by immunostaining based imaging cytometric analysis; type: cell-based; conditions: filed as activator
ZR-75-30 [26] = assay: Induction of apoptosis in tamoxifen-induced senescent human ZR-75-30 cells assessed as decrease in HSP90 level incubated for 24 hrs by immunostaining based imaging cytometric analysis; type: functional, cell-based
HCC1428 [27] = assay: Induction of apoptosis in tamoxifen-induced senescent human HCC1428 cells assessed as decrease in HSP90 level incubated for 24 hrs by immunostaining based imaging cytometric analysis; type: functional, cell-based
[28] = target: RAC-alpha serine/threonine-protein kinase (Homo sapiens) (UniProt P31749); assay: Binding affinity to recombinant human AKT (14 to 276 residues) assessed as interaction by measuring decrease in chemiluminescence signal at 0.01 to 5 uM incubated overnight by dot-blot analysis; conditions: dose 0.01-5 µM
Chain of RAC-alpha serine/threonine-protein kinase (Homo sapiens) (P31749 whole entry, the tested form may be a part): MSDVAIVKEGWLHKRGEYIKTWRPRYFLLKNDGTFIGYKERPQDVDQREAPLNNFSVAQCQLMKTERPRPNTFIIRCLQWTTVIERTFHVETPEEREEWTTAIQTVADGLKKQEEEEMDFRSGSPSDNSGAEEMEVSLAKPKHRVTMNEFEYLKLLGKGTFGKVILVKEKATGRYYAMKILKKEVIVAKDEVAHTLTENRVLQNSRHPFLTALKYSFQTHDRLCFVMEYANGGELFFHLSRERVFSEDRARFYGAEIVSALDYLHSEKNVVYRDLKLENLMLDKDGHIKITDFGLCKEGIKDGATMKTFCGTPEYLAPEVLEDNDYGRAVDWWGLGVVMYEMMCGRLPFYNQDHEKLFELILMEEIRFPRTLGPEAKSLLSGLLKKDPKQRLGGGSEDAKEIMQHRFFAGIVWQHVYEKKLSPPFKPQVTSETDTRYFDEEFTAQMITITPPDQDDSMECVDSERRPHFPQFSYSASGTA

CAMA-1 [29] = assay: Induction of senescence in human CAMA-1 cells assessed as […] in beta-galactosidase activity at 5 uM incubated for 24 hrs by immunostaining based imaging cytometric analysis; type: functional, cell-based
HCC1428 [30] = assay: Induction of senescence in human HCC1428 cells assessed as increase in IL-8 level at 5 uM incubated for 24 hrs by immunostaining based imaging cytometric analysis; type: functional, cell-based
CAMA-1 [31] = assay: Induction of senescence in human CAMA-1 cells assessed as increase in IL-8 level at 5 uM incubated for 24 hrs by immunostaining based imaging cytometric analysis; type: functional, cell-based
ZR-75-30 [32] = assay: Effect on IL-8 level in human ZR-75-30 cells at 5 uM incubated for 24 hrs by immunostaining based imaging cytometric analysis; type: functional, cell-based
T47D [33] = assay: Antitumor activity against ER-positive human T47D cells xenografted in Danio rerio embryo assessed as decrease in tumor size at 1 to 5 uM administered for 48 hrs by imaging analysis; type: functional, cell-based; conditions: dose 1-5 µM
MCF7 = assay: Antitumor activity against ER-positive human MCF7 cells xenografted in Danio rerio embryo assessed as increase in Bax mRNA level at 1 to 5 uM administered for 48 hrs by RT-PCR analysis; type: functional, cell-based; conditions: dose 1-5 µM
T47D [34] = assay: Antitumor activity against ER-positive human T47D cells xenografted in Danio rerio embryo assessed as increase in p21 mRNA level at 1 to 5 uM administered for 48 hrs by RT-PCR analysis; type: functional, cell-based; conditions: dose 1-5 µM

For CC(=O)Oc1ccc2c(=O)c(OCCCC[P+](c3ccccc3)(c3ccccc3)c3ccccc3)c(-c3ccc4c(c3)OC(c3ccccc3)(c3ccccc3)O4)oc2c1.[I-], the Activity (CAMA-1 [1]) was “Active”, the Activity (Mitochondrial membrane [2]) was “Active” and the Activity (Mitochondrial membrane [3]) was “Active”. For the same molecule, the Activity (Mitochondrial membrane [4]) was “inactive”, the Activity (MCF-10F [5]) was “inactive” and the Activity (MCF-10F [6]) was “inactive”. For the same molecule, the Activity (MCF-10F [7]) was “inactive”, the Activity (HCC1428 [8]) was “Active” and the Activity (MCF-10F [9]) was “inactive”. For the same molecule, the Activity (MCF-10F [10]) was “inactive”, the Activity (HCC1428 [11]) was “inactive” and the Activity (HCC1428 [12]) was “Active”. For the same molecule, the Activity (ZR-75-30 [13]) was “Active”, the Activity (HCC1500 [14]) was “Active” and the Activity (ZR-75-30 [15]) was “Active”. For the same molecule, the Activity (HCC1500 [16]) was “Active”, the Activity (HCC1428 [17]) was “Active” and the Activity (MCF-10F [18]) was “inactive”. For the same molecule, the Activity [19] was “inactive”, the Activity (HCC1428 [20]) was “Active” and the Activity (ZR-75-30 [21]) was “Active”. For the same molecule, the Activity (HCC1428 [22]) was “Active”, the Activity (HCC1500 [23]) was “Active” and the Activity (MCF-10F [24]) was “inactive”. For the same molecule, the Activity (ZR-75-30 [25]) was “Active”, the Activity (ZR-75-30 [26]) was “Active” and the Activity (HCC1428 [27]) was “Active”. The Activity [28] was “Active”, the Activity (CAMA-1 [29]) was “Active” and the Activity (HCC1428 [30]) was “Active”. For the same molecule, the Activity (CAMA-1 [31]) was “inactive”, the Activity (ZR-75-30 [32]) was “inactive” and the Activity (T47D [33]) was “Active”. For the same molecule, the Activity (MCF7) was “Active” and the Activity (T47D [34]) was “Active”.
